As usually defined, the inhibition is how much of the control response was suppressed. The IC50 is the concentration needed to halve the response being measured. In general, Km refers to the concentration of substrate that gives half-maximal velocity.

“Also recorded” adds a separate entry of the source. Read-outs that look alike come from different tables or passages of the source.

Data set [1] concerns the target T1, OAT3 (Homo sapiens, UniProt Q8TCC7).
T1 sequence (Q8TCC7 1-542): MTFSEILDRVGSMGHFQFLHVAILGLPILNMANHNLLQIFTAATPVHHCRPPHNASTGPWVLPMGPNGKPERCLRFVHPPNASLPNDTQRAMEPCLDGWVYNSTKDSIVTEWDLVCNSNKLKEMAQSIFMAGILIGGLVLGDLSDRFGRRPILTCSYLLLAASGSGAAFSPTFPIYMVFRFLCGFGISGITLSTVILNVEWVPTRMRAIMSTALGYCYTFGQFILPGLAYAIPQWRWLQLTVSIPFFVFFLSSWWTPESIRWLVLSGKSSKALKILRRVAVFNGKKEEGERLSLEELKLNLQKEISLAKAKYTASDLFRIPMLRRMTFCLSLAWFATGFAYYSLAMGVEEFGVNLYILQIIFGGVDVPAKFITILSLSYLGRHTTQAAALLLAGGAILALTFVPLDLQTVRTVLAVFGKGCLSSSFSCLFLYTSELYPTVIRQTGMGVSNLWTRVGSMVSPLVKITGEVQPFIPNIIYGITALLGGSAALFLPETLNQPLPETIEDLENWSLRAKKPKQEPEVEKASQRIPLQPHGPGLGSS
The following applies: cited from earlier work.

For data set [2], the target named is T2, OAT1 (Homo sapiens, UniProt Q4U2R8).
T2 sequence (Q4U2R8 1-563): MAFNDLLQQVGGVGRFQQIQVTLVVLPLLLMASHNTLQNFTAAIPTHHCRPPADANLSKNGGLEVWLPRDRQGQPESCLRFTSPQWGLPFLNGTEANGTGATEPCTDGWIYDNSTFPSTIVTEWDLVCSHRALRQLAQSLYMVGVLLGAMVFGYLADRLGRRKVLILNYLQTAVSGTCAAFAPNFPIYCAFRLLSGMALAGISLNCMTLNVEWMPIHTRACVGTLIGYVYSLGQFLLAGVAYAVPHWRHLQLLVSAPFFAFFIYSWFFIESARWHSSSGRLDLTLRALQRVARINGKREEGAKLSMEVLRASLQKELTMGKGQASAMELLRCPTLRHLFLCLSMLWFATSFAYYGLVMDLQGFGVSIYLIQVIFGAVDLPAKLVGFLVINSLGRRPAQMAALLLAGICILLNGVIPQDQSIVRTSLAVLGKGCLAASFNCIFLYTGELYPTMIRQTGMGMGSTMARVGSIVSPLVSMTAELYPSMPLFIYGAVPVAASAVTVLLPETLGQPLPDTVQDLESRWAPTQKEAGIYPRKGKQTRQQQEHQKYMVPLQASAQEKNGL
The note with it: cited from earlier work.

The target of data set [3] is T3, OATP1B3 (Homo sapiens, UniProt Q9NPD5).
T3 sequence (Q9NPD5 1-702): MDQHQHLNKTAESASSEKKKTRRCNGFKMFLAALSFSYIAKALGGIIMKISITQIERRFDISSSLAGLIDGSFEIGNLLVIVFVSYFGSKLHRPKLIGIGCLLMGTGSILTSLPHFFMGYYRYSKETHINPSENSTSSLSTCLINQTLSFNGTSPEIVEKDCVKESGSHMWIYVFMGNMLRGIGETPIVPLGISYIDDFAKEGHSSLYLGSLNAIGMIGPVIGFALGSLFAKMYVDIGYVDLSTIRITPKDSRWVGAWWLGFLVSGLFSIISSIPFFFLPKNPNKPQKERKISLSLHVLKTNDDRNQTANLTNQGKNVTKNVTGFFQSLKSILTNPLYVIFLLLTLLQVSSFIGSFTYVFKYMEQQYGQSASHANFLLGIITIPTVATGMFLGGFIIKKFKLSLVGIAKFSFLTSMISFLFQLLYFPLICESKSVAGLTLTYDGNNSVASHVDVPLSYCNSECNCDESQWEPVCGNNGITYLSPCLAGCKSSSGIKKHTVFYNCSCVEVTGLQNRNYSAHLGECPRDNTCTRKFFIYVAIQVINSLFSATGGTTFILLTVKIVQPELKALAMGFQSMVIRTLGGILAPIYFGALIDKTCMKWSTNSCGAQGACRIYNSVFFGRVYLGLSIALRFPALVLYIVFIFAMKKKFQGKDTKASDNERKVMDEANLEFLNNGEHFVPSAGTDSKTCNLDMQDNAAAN
The following applies: cited from earlier work.

Data set [4] concerns the target T3, OATP1B3. Kind of data set: Uptake in HEK293 cells overexpressing OATP1B3. Format: in vitro ADME. The note with it: probe substrate, functionality check of OATP1B3.
Data set [5] concerns the target T1, OAT3. The experiment in a line: Uptake in HEK293 cells overexpressing OAT3. Format: in vitro ADME. The note with it: probe substrate, functionality check of OAT3.
Data set [6] concerns the target T4, OATP1B1 (Homo sapiens, UniProt Q9Y6L6).
T4 sequence (Q9Y6L6 1-691): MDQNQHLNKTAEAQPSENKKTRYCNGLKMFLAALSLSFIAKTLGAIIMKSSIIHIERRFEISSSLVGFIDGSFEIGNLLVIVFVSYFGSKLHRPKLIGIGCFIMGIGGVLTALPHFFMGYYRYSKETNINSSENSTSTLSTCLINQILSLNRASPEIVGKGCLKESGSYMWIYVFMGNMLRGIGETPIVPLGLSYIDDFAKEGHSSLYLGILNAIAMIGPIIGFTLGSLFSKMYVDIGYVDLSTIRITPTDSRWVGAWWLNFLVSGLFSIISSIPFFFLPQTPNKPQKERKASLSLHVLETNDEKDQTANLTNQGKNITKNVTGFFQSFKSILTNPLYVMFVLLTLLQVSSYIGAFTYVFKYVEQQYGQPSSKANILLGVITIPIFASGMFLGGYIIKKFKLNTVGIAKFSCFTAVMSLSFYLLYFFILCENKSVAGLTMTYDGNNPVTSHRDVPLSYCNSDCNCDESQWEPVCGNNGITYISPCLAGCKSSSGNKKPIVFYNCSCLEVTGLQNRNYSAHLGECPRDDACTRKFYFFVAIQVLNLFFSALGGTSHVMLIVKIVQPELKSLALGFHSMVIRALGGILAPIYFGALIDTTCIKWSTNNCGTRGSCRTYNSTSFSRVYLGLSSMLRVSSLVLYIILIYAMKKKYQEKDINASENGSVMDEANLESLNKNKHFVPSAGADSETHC
Kind of data set: Uptake in HEK293 cells overexpressing OATP1B1. The following applies: probe substrate, functionality check of OATP1B1. In kind it is in vitro ADME.

Data set [7] concerns the target T5, BCRP (Homo sapiens, UniProt Q9UNQ0).
T5 sequence (Q9UNQ0 1-655): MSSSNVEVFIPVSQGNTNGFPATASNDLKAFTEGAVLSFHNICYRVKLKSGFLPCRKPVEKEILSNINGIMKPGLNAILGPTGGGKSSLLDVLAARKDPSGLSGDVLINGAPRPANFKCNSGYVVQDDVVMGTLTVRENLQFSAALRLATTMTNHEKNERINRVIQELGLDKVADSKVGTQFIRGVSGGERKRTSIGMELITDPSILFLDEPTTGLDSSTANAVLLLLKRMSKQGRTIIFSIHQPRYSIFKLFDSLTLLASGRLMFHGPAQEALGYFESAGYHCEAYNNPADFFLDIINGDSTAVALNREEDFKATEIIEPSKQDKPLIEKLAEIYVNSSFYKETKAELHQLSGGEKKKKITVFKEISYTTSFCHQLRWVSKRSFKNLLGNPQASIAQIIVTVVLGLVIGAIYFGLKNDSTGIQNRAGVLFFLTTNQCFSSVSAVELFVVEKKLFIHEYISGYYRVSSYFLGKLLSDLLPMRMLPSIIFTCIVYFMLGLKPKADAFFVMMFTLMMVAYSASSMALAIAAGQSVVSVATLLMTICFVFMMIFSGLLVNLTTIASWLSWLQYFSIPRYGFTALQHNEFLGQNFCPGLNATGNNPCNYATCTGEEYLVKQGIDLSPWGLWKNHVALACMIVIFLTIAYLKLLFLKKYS
Kind of data set: A-to-B and B-to-A transport in LLC-PK1 cells overexpressing BCRP. In kind it is in vitro ADME. The following applies: probe substrate, LLC-PK1-BCRP compared with LLC-PK1-mock cells.

The target of data set [8] is T1, OAT3. The note with it: 10 μM catalposide, HEK293-OAT3.
Data set [9] concerns the target T1, OAT3. The experiment in a line: in vitro. The note with it: HEK293 cells transiently expressing OAT3, probe catalposide 10 μM.
The target of data set [10] is T3, OATP1B3. Format: in vitro ADME. The following applies: 10 μM catalposide, HEK293-OATP1B3.
Data set [11] addresses T4, OATP1B1. The note with it: 10 μM catalposide, HEK293-OATP1B1.
Data set [12] deals with OATP2B1. The note with it: cited from earlier work.
Substrate in data set [13]: O=C(O[C@H]1[C@@H]2C=CO[C@@H](O[C@@H]3O[C@H](CO)[C@@H](O)[C@H](O)[C@H]3O)[C@@H]2[C@@]2(CO)O[C@@H]12)c1ccc(O)cc1
Kind of data set: Uptake in HEK293 cells overexpressing OAT3. In kind it is in vitro ADME. The note with it: other: OAT3-mediated uptake, 2–500 μM catalposide, 10 minutes; 37.0 °C.

In the case of `O=c1cc(-c2ccccc2)oc2cc(O)c(O)c(O)c12` [Bicalein], in data set [1], the “Inhibition of OAT3 transport activity” value is on record as “significantly inhibited”. The “Inhibition of OAT1 transport activity” value in [2] is given as “significantly inhibited”. Besides, in data set [3], the “Inhibition of OATP1B3 transport activity” value was “significantly inhibited”.

For `C[C@]12CC[C@@H]3c4ccc(O)cc4CC[C@H]3[C@@H]1CC[C@@H]2O[C@@H]1O[C@H](C(=O)O)[C@@H](O)[C@H](O)[C@H]1O` [EG, estradiol-17β-D-glucuronide], the “Fold increase in uptake vs HEK293 mock cells” value in data set [4] was 15.0 fold.

For `C[C@]12CC[C@@H]3c4ccc(OS(=O)(=O)O)cc4CC[C@H]3[C@@H]1CCC2=O` [ES, estrone-3-sulfate], the “Fold increase in uptake vs HEK293 mock cells” value in [5] worked out at 18.9 fold; in data set [6] it was 17.3 fold. The Net efflux ratio in data set [7] is listed as 4.6.

Regarding `CN/C(=N/CCSCc1nc[nH]c1C)NC#N` [cimetidine], the “Effect on OAT3-mediated catalposide uptake (words)” value in [8] is “decreased to basal levels”; in [8] (listed as Cimetidine) it was “inhibited OAT3-mediated catalposide transport in a concentration-dependent manner”. This molecule also showed an inhibition at 10 min, 100 μM in data set [9] of 70.4%.

As for `Cc1ccc(C)c(OCCCC(C)(C)C(=O)O)c1` [gemfibrozil], the “Effect on OATP1B3-mediated catalposide uptake” value in data set [10] is “decreased to basal levels; also recorded: inhibitory effects”. For the same molecule, in [11], the “Effect on OATP1B1-mediated catalposide uptake” value was “decreased to basal levels; also recorded: inhibitory effects”. For the same molecule, the IC50 in [3] (read-out: IC50 as inhibitor of OATP1B3) was approximately 200 µM.

Regarding `COc1ccc(-c2oc3c(CC=C(C)C)c(O[C@@H]4O[C@H](CO)[C@@H](O)[C@H](O)[C@H]4O)cc(O)c3c(=O)c2O[C@@H]2O[C@@H](C)[C@H](O)[C@@H](O)[C@H]2O)cc1` [icariin], the “Inhibition of OATP2B1 activity” value in data set [12] is recorded as “potentially inhibited”. Moreover, the “Inhibition of OATP1B3 activity” value in [3] is “potentially inhibited”.

Regarding `CCCN(CCC)S(=O)(=O)c1ccc(C(=O)O)cc1` [probenecid], the “Effect on OAT3-mediated catalposide uptake (words)” value in [8] is recorded as “decreased to basal levels; also recorded: inhibited OAT3-mediated catalposide transport in a concentration-dependent manner”. Besides, the inhibition at 10 min, 10 μM in data set [9] stood at 84.5%.

Regarding `CO[C@H]1/C=C/O[C@@]2(C)Oc3c(C)c(O)c4c(O)c(c(/C=N/N5CCN(C)CC5)c(O)c4c3C2=O)NC(=O)/C(C)=C\C=C\[C@H](C)[C@H](O)[C@@H](C)[C@@H](O)[C@@H](C)[C@H](OC(C)=O)[C@@H]1C` [rifampin], in data set [10], the “Effect on OATP1B3-mediated catalposide uptake” value is reported as “decreased to basal levels; also recorded: inhibitory effects”. Further, the “Effect on OATP1B1-mediated catalposide uptake” value in [11] is “decreased to basal levels; also recorded: inhibitory effects”.

On to `COc1c(O)cc(O)c2c(=O)cc(-c3ccccc3)oc12` [wogonin], for which, in data set [1], the “Inhibition of OAT3 transport activity” value is recorded as “significantly inhibited”. Besides, in data set [2], the “Inhibition of OAT1 transport activity” value was “significantly inhibited”. Further, the “Inhibition of OATP1B3 transport activity” value in data set [3] was “significantly inhibited”.

B1: OAT3 (Homo sapiens) (protein)
chain: MTFSEILDRVGSMGHFQFLHVAILGLPILNMANHNLLQIFTAATPVHHCRPPHNASTGPWVLPMGPNGKPERCLRFVHPPNASLPNDTQRAMEPCLDGWVYNSTKDSIVTEWDLVCNSNKLKEMAQSIFMAGILIGGLVLGDLSDRFGRRPILTCSYLLLAASGSGAAFSPTFPIYMVFRFLCGFGISGITLSTVILNVEWVPTRMRAIMSTALGYCYTFGQFILPGLAYAIPQWRWLQLTVSIPFFVFFLSSWWTPESIRWLVLSGKSSKALKILRRVAVFNGKKEEGERLSLEELKLNLQKEISLAKAKYTASDLFRIPMLRRMTFCLSLAWFATGFAYYSLAMGVEEFGVNLYILQIIFGGVDVPAKFITILSLSYLGRHTTQAAALLLAGGAILALTFVPLDLQTVRTVLAVFGKGCLSSSFSCLFLYTSELYPTVIRQTGMGVSNLWTRVGSMVSPLVKITGEVQPFIPNIIYGITALLGGSAALFLPETLNQPLPETIEDLENWSLRAKKPKQEPEVEKASQRIPLQPHGPGLGSS
B1: the Km in [13] is 41.5 µM.
